Measurements from paper PMC6478789, “A chemical toolbox for the study of bromodomains and epigenetic signaling” (Nature Communications, 2019).
Changes are numbered by the printed parent chain. Read-outs that look alike come from different tables or passages of the source. Blank lines part the entries; values can stand above or below the molecule they belong to.

Columns and labels:
Assay in all cases: BROMOscan ligand-binding assay
SMARCA2 = SMARCA2 (Homo sapiens, UniProt P51531)
Text: (§1) BROMOscan is a binding assay based on the well-known KINOMEscan technology. This assay measures the binding of a DNA-tagged bromodomain to an immobilized BRD ligand. If an inhibitor is present, it will compete with the bromodomain binding to the immobilized ligand, resulting in reduction of a quantitative PCR (qPCR) signal in a dose-dependent manner.

BRD4(1) = BRD4(1) (Homo sapiens, UniProt O60885)
Text: as §1

BRD8(1) = BRD8(1) (Homo sapiens, UniProt Q9H0E9)
Chain of BRD8(1) (Q9H0E9 706-811 limits assumed): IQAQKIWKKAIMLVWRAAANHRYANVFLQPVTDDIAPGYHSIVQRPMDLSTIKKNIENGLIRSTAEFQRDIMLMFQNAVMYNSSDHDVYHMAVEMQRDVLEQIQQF
Text: as §1

BRD2(2) = BRD2(2) (Homo sapiens, UniProt P25440)
Chain of BRD2(2) (P25440 344-453 limits assumed): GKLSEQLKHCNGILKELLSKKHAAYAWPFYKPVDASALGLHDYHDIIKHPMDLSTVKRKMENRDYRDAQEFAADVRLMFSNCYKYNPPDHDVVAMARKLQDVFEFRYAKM
Text: as §1

PBRM1(2) = PBRM1(2) (Homo sapiens, UniProt Q86U86)
Chain of PBRM1(2) (Q86U86 177-287 limits assumed): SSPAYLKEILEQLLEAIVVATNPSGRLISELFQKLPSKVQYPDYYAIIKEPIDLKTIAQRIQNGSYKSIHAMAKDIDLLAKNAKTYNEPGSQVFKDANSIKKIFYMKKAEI
Text: as §1

BRDT(2) = BRDT(2) (Homo sapiens, UniProt Q58F21)
Text: as §1

BRDT(1) = BRDT(1) (Homo sapiens, UniProt Q58F21)
Text: as §1

SMARCA4 = SMARCA4 (Homo sapiens, UniProt P51532)
Chain of SMARCA4 (P51532 1453-1564 limits assumed): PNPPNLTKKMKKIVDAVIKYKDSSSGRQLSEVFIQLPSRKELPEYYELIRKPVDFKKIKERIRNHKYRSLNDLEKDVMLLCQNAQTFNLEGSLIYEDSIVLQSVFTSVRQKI
Text: as §1

BRD4(2) = BRD4(2) (Homo sapiens, UniProt O60885)
Text: as §1

PCAF = target: T1, PCAF (Homo sapiens, UniProt Q92831)
T1 sequence (Q92831 723-827 limits assumed): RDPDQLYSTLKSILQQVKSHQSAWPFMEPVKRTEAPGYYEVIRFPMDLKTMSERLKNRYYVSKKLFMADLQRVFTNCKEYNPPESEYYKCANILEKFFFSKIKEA
Text: as §1

BRD7 = target: T2, BRD7 (Homo sapiens, UniProt Q9NPI1); details: KD
T2 sequence (Q9NPI1 131-235 limits assumed): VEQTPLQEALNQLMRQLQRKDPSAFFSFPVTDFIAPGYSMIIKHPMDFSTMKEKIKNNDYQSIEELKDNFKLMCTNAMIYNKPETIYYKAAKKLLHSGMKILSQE
Text: as §1

BRD2(1) = BRD2(1) (Homo sapiens, UniProt P25440)
Chain of BRD2(1) (P25440 74-180 limits assumed): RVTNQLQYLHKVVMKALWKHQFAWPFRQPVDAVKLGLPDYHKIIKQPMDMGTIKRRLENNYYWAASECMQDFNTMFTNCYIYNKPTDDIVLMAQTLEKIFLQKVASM
Text: as §1

TAF1L(2) = target: T3, TAF1L(2) (Homo sapiens, UniProt Q8IZX4)
T3 sequence (Q8IZX4 1517-1626 limits assumed): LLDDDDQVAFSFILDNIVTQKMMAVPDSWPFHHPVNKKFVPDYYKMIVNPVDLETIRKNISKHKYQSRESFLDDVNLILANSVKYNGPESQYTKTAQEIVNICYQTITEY
Text: as §1

BRD4(1,2) = BRD4(1,2) (Homo sapiens, UniProt O60885)
Text: as §1

BRD3(1,2) = BRD3(1,2) (Homo sapiens, UniProt Q15059)
Chain of BRD3(1,2) (Q15059 24-416 limits assumed): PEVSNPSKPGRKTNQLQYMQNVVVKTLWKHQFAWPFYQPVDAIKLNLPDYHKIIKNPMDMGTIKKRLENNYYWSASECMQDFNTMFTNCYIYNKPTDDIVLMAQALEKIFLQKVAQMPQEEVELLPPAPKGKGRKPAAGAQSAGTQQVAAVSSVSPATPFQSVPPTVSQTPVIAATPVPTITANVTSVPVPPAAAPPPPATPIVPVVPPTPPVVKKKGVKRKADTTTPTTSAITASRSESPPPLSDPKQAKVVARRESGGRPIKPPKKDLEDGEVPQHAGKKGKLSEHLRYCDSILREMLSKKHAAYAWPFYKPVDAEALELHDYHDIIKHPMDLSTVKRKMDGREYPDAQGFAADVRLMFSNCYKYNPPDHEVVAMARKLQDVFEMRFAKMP
Text: as §1

BRD8(2) = BRD8(2) (Homo sapiens, UniProt Q9H0E9)
Chain of BRD8(2) (Q9H0E9 1099-1207 limits assumed): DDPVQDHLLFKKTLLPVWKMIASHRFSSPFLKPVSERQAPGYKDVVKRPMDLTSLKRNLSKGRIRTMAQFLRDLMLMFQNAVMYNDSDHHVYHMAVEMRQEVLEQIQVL
Text: as §1

BRPF1 = target: T4, BRPF1 (Homo sapiens, UniProt P55201)
T4 sequence (P55201 628-732 limits assumed): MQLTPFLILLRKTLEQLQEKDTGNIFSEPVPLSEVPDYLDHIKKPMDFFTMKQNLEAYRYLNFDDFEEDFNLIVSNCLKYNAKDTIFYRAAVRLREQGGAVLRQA
Text: as §1

TAF1(2) = target: T5, TAF1(2) (Homo sapiens, UniProt P21675)
T5 sequence (P21675 1519-1628 limits assumed): T3 sequence (Q8IZX4 1517-1626 limits assumed) with M46V, V51M, I102V, I107L
Text: as §1

TRIM33(PHD,BRD) = target: T6, TRIM33(PHD,BRD) (Homo sapiens, UniProt Q9UPN9)
T6 sequence (Q9UPN9 882-1087 limits assumed): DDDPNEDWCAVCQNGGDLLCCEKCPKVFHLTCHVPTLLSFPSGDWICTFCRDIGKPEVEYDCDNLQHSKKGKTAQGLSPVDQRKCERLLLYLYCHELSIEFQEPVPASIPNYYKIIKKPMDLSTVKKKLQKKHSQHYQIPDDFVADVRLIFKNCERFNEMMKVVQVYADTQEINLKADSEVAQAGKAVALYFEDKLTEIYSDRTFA
Text: as §1

TRIM24(PHD,BRD) = target: T7, TRIM24(PHD,BRD) (Homo sapiens, UniProt O15164)
T7 sequence (O15164 824-1006 limits assumed): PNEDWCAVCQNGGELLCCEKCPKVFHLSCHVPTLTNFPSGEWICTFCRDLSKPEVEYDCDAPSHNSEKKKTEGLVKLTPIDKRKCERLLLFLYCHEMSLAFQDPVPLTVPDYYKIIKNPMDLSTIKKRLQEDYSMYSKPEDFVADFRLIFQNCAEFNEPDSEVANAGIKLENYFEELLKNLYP
Text: as §1

BAZ2B = target: T8, BAZ2B (Homo sapiens, UniProt Q9UIF8); details: BAZ2B
T8 sequence (Q9UIF8 2060-2164 limits assumed): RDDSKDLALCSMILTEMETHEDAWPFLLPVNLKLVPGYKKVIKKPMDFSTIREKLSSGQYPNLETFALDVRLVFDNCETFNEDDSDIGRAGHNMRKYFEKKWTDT
Text: as §1

BAZ2A = target: T9, BAZ2A (Homo sapiens, UniProt Q9UIF9)
T9 sequence (Q9UIF9 1793-1897 limits assumed): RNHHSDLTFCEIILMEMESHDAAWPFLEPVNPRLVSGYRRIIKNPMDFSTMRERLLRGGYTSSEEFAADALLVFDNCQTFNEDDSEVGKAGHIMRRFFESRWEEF
Text: as §1

[1] = KD (BROMOscan), sheet prints no unit (nM)

Chain of SMARCA2 (P51531 1-1572 isoform P51531-2): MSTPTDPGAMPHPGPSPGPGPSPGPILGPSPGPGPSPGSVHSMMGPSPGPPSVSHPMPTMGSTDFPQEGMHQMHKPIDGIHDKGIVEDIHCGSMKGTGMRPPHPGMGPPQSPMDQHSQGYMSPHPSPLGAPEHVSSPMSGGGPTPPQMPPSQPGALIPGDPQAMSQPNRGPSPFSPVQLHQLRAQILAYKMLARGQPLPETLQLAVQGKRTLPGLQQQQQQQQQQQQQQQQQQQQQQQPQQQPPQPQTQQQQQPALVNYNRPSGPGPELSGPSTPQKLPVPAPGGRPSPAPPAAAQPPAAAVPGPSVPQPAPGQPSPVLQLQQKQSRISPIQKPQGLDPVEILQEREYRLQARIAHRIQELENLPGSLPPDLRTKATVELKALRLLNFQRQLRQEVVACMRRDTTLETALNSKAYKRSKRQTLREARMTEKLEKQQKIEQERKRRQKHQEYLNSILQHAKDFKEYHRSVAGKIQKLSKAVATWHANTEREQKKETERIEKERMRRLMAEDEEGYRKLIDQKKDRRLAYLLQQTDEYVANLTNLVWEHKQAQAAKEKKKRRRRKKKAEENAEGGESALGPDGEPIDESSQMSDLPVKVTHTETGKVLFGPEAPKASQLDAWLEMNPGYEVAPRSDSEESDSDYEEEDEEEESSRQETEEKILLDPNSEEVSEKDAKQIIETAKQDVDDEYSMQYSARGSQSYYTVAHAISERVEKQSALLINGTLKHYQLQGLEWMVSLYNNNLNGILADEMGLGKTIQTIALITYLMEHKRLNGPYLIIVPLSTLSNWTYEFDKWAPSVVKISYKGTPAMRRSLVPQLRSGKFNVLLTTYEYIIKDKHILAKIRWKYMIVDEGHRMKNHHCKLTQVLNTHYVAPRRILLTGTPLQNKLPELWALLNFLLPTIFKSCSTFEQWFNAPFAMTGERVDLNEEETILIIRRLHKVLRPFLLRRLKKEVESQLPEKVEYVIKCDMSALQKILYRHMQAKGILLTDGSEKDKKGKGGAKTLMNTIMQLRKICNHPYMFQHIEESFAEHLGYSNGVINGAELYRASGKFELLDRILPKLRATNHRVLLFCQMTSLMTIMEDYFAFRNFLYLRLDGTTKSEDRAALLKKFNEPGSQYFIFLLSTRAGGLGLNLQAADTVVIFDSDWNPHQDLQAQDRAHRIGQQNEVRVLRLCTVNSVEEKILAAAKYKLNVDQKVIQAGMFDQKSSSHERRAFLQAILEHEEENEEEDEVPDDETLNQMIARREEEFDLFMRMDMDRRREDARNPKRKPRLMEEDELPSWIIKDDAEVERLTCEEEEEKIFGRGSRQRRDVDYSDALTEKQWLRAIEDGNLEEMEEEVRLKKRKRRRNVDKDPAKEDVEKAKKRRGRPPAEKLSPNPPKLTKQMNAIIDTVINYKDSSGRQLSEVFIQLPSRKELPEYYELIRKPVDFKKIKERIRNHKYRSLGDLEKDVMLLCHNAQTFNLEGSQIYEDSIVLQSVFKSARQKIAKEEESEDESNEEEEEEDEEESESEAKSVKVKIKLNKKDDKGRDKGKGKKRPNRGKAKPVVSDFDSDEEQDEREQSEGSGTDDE

Kd (SMARCA2; [1]): > 30000 nM | Kd (SMARCA2; KD, BROMOscan Gene Symbol SMARCA2): > 100000 nM | Kd (BRD4(1)): 74 µM | Kd (BRD8(1); [1]): > 30000 nM | Kd (BRD8(1); KD, BROMOscan Gene Symbol BRD8(1)): > 100000 nM | Kd (BRD2(2)): 22 µM | Kd (PBRM1(2); [1]): > 30000 nM | Kd (PBRM1(2); KD, BROMOscan Gene Symbol PBRM1(2)): > 100000 nM | Kd (BRDT(2); KD, BROMOscan Gene Symbol BRDT(2)): 67 µM | Kd (BRDT(1); KD, BROMOscan Gene Symbol BRDT(1)): 30 µM | Kd (SMARCA4; [1]): > 30000 nM | Kd (SMARCA4; KD, BROMOscan Gene Symbol SMARCA4): > 100000 nM | Kd (BRD4(2)): 29 µM | Kd (PCAF; [1]): > 30000 nM | Kd (PCAF; KD, BROMOscan Gene Symbol PCAF): > 100000 nM | Kd (BRD7; BROMOscan Gene Symbol BRD7): 22 µM | Kd (BRD2(1)): 41 µM | Kd (TAF1L(2)): 5.1 µM | Kd (BRD4(1,2)): 65 µM | Kd (BRD3(1,2); KD, BROMOscan Gene Symbol BRD3(1,2)): 17 µM | Kd (BRD8(2); [1]): > 30000 nM | Kd (BRD8(2); KD, BROMOscan Gene Symbol BRD8(2)): > 100000 nM | Kd (BRPF1; KD, BROMOscan Gene Symbol BRPF1): 14 µM | Kd (TAF1(2)): 1.4 µM | Kd (TRIM33(PHD,BRD); [1]): > 30000 nM | Kd (TRIM33(PHD,BRD); KD, BROMOscan Gene Symbol TRIM33(PHD,Bromo.)): > 100000 nM | Kd (TRIM24(PHD,BRD); KD, BROMOscan Gene Symbol TRIM24(PHD,Bromo.)): 33 µM
SMILES: CCCOc1ccn2c(C(C)=O)cc(-c3ccccc3S(C)(=O)=O)c2c1 [GSK2801]

Kd (SMARCA2; KD, SMARCA2): 250000 nM | Kd (BRD4(1)): > 14000 µM | Kd (BRD8(1); KD, BRD8(1)): > 1.4e+07 nM | Kd (BRD2(2)): > 14000 µM | Kd (PBRM1(2); KD, PBRM1(2)): 1e+06 nM | Kd (BRDT(2); KD, BRDT(2)): > 14000 µM | Kd (BRDT(1); KD, BRDT(1)): > 14000 µM | Kd (SMARCA4; KD, SMARCA4): 320000 nM | Kd (BRD4(2)): > 14000 µM | Kd (PCAF; KD, PCAF): > 1.4e+07 nM | Kd (BRD7; BRD7): > 14000 µM | Kd (BRD2(1)): > 14000 µM | Kd (TAF1L(2)): > 14000 µM | Kd (BRD4(1,2)): > 14000 µM | Kd (BAZ2B; KD): > 14000 µM | Kd (BRD8(2); KD, BRD8(2)): > 1.4e+07 nM | Kd (BRPF1; KD, BRPF1): 4200 µM | Kd (BAZ2A): > 14000 µM | Kd (TAF1(2)): > 14000 µM | Kd (TRIM33(PHD,BRD); KD, TRIM33(PHD,Bromo.)): > 1.4e+07 nM | Kd (TRIM24(PHD,BRD); KD, TRIM24(PHD,Bromo.)): > 14000 µM
SMILES: O=C(O)c1ccccc1O [Salicylic Acid]

Kd (SMARCA2; BROMOscan, SMARCA2): > 50000 nM | Kd (BRD4(1); BROMOscan, BRD4(1)): 46 µM | Kd (BRD8(1); BROMOscan, BRD8(1)): > 50000 nM | Kd (BRD2(2); BROMOscan, BRD2(2)): 9.2 µM | Kd (PBRM1(2); BROMOscan, PBRM1(2)): > 50000 nM | Kd (BRDT(2); BROMOscan, BRDT(2)): 33 µM | Kd (BRDT(1); BROMOscan, BRDT(1)): > 50 µM | Kd (SMARCA4; BROMOscan, SMARCA4): > 50000 nM | Kd (BRD4(2); BROMOscan, BRD4(2)): 25 µM | Kd (PCAF; BROMOscan, PCAF): > 50000 nM | Kd (BRD2(1); BRD2(1)): > 50 µM | Kd (TAF1L(2); BROMOscan, TAF1L(2)): > 50 µM | Kd (BRD4(1,2); BROMOscan, BRD4(1,2)): 41 µM | Kd (BAZ2B): > 50 µM | Kd (BRD3(1,2); BROMOscan, BRD3(1,2)): 47 µM | Kd (BRD8(2); BROMOscan, BRD8(2)): > 50000 nM | Kd (BRPF1; BROMOscan, BRPF1): 43 µM | Kd (BAZ2A; BAZ2A): > 50 µM | Kd (TAF1(2); BROMOscan, TAF1(2)): > 50 µM | Kd (TRIM33(PHD,BRD); BROMOscan, TRIM33(PHD,Bromo.)): > 50000 nM | Kd (TRIM24(PHD,BRD); BROMOscan, TRIM24(PHD,Bromo.)): > 50 µM
SMILES: Cc1cc(=O)n(C)c2cc(N3C(=O)CC[C@H](NS(=O)(=O)CC(C)C)[C@H]3c3ccc(Cl)cc3)ccc12 [LP-99]
